Earlier results in paper PMC4939907 (Angewandte Chemie (International ed. in English), 2016).

Tested on: cancer (e.g., HeLa) and normal (e.g., HS-5) cells
Details: cancer (e.g., HeLa) versus normal (e.g., HS-5) cells; ref 4c, 4d, 10b

Nap-D-Phe-D-Phe-D-pTyr
selectivity for cancer cells: selectively inhibits cancer cells
